The text below walks through data of US6646008B1, “Treatment of disease states which result from neoplastic cell proliferation using PPAR-γ activators and compositions useful therefor” (The Salk Institute for Biological Studies, priority 1996, dated 2003).

Experiment [1] deals with HL-60 cells. Briefly: Cell cycle analysis of HL-60 cells by flow cytometry (DNA content). Particulars: for Cell Cycle Phase, % G1 / Cell Cycle Phase, % G2 / Cell Cycle Phase, % S: day 3, 100 nM 9-cis RA, 100 nM LG268, 3 μM PG-J2. It is filed as cell-based. Here is the method: (§1) HL-60 cells were plated at a density of 2×10^5 cells/ml and were treated with:
(§2) 100 nM 9-cis retinoic acid (9-cis RA; which is both RAR and RXR active),
(§3) 100 nM LG268 (which is RXR selective),
(§4) 3 μM prostaglandin J2 (PG-J2; which is PPARγ active), or
(§5) a combination of 100 nM of LG268 and 3 μM of PG-J2.
Cell cycle analysis was carried out on day 3 using standard DNA content determination by flow cytometry.

In experiment [2] the test system is HL-60 cells. Briefly: Growth of HL-60 cells in the presence of ligands. The conditions noted are these: 100 nM 9-cis RA, 100 nM LG268, 3 μM PG-J2, cell numbers after 3, 5 or 7 days. It is filed as cell-based. As for the experimental part: as §1, §2, §3, §4, §5
Cell numbers were determined after 3, 5 or 7 days of culture, as illustrated in FIG. 1.

Another experiment has as its system NIH-PPARγ cells. Briefly: Adipocyte differentiation (oil red O lipid staining) of NIH-3T3 fibroblasts expressing PPARγ from a retroviral vector. It is filed as cell-based. Particulars: for % lipid containing cells: NIH-PPARγ cells, treated 7 days at confluence, 1 μM pioglitazone, 50 nM LG268, or 5 μM thiazolidinedione and 50 nM LG268, oil red O after four more days, range over three experiments. Here is the method:
Simultaneous exposure of competent cells to both PPARγ and RXR-specific ligand was investigated to determine if such combination might provide a stronger adipogenic signal than a PPARγ ligand alone. […] NIH-vector and NIH-PPARγ cells were cultured as described in the Examples.

In a further experiment the test system is NIH-vector cells. The experiment in a line: Adipocyte differentiation (oil red O lipid staining) of NIH-vector cells. Particulars: for % lipid containing cells: NIH (vector) cells, treated 7 days at confluence, 1 μM pioglitazone, 50 nM LG268, or 5 μM thiazolidinedione and 50 nM LG268, oil red O after four more days, range over three experiments. It is filed as cell-based. As for the experimental part:
Simultaneous exposure of competent cells to both PPARγ and RXR-specific ligand was investigated to determine if such combination might provide a stronger adipogenic signal than a PPARγ ligand alone. […] It has previously been shown that wild-type NIH-3T3 cells express RXRα but not PPARγ. NIH-vector and NIH-PPARγ cells were cultured as described in the Examples. […] After an additional four days of culture, cells were fixed and stained with oil red O. Data are presented in Table 1 as the range of morphologically recognizable differentiation observed for each line over three separate experiments.

The subject of the next experiment is LS857 cells. Briefly: Differentiation of primary liposarcoma cell strain LS857 (lipid accumulation, morphology). It is filed as cell-based, human. Particulars: 7 days.
The next experiment relates to HL-60 leukemia cells. Briefly: CD14 differentiation antigen flow cytometry in HL-60 cells. Particulars: 5 days, 10 nM AM580, 100 nM LG268, 3 μM 15-deoxy-Δ12,14-prostaglandin-J2. It is filed as cell-based. As for the experimental part: (§6) HL-60 and THP-1 leukemia cells were seeded at a ensity of 2×10^5 cells/ml and cultured in RPMI containing 10% charcoal-stripped fetal calf serum. Cells were treated with either vehicle alone, or 10 nM AM580, 100 nM LG268, or 3 μM 15-deoxy-Δ12,14-prostaglandin-J2. After 5 days, cells were incubated with monoclonal antibody to the monocyte-specific differentiation antigen CD14, and analyzed by flow cytometry using a Becton Dickinson FACScan.

In the next experiment the test system is THP-1 leukemia cells. Briefly: CD14 differentiation antigen flow cytometry in THP-1 cells. It is filed as cell-based. The conditions noted are these: 5 days, 100 nM LG268, 3 μM 15-deoxy-Δ12,14-prostaglandin-J2. As for the experimental part:
as §6

In a further experiment the test system is LS175 cells. The experiment in a line: Differentiation of primary liposarcoma cell strain LS175. It is filed as cell-based, human. Particulars: 10 μM pioglitazone, 7 days. As for the experimental part: Liposarcomas have presumably acquired one or more genetic defects that interfere with the course of normal adipocyte development. The observation that PPARγ is expressed consistently in these tumors raised the possibility that the malignant cells might be forced to complete the differentiation program by maximally iactivating the PPARγ pathway. To address this possibility, primary cells isolated from three human liposarcomas were cultured in vitro. Primary cell strains LS857 and LS175 were derived from well differentiated liposarcomas and LS707 was derived from an intermediate grade myxoid/round cell liposarcoma (see Table 5). High grade pleomorphic liposarcoma cells could not be expanded to sufficient numbers to permit studies of differentiation. A primary leiomyosarcoma cell line LM203 was cultured as a control. To confirm that these cultures consisted of malignant tumor-derived cells, cytogenetic analysis was performed.
When cultured in the presence of fetal bovine serum and insulin, conditions permissive for adipocyte differentiation, all three cell lines maintain a fibroblastic morphology. LS175 cells contained small amounts of stainable lipid under these conditions. […] The degree of morphologically recognizable differentiation varied from 40% in the LS857 cells to 75% in the LS175 cells. […]

Consider `CC1=C(/C=C/C(C)=C\C=C\C(C)=C\C(=O)O)C(C)(C)CCC1` [9-cis RA, 9-cis retinoic acid], for which the “effect on cell cycle progression” value in the experiment with HL-60 cells [1] (day 3) is “inhibits cell cycle progression”. Besides, in the experiment with HL-60 cells [1], the “Cell Cycle Phase, % G1” value amounted to 70.5%; the “Cell Cycle Phase, % G2” value turned out to be 10.2%; the “Cell Cycle Phase, % S” value amounted to 19.2%. Also, the “effect on cell growth” value with HL-60 cells [2] is reported as “inhibit cell growth”.
With `Cc1cc2c(cc1C1(c3ccc(C(=O)O)cn3)CC1)C(C)(C)CCC2(C)C` [LG268, 6-[1-(3,5,5,8,8-pentamethyl-5,6,7,8-tetrahydronaphthalen-2-yl)cyclopropyl]nicotinic acid], the “% lipid containing cells” value is 50-65% with NIH-PPARγ cells and 0% in the experiment on NIH-vector cells. The “adipocyte differentiation” value is on record as “significant stimulation of adipocyte differentiation” in the experiment with NIH-PPARγ cells (confluent NIH-PPARγ cells, 7 days, 50 nM LG268 and/or 1 μM pioglitazone) and “significant degree of adipocyte differentiation” with LS857 cells (50 nM LG268, 10 μM pioglitazone). The “Cell Cycle Phase, % G1” value in the experiment with HL-60 cells [1] turned out to be 54.5%. In addition, the “Cell Cycle Phase, % G2” value in the experiment with HL-60 cells [1] was 14.4%. The “Cell Cycle Phase, % S” value with HL-60 cells [1] stood at 31.1%. Further, the “adipogenic effect” value with NIH-vector cells (NIH-vector cells) is given as “no effect”. Besides, the “lipid accumulation, oil red O, macroscopic view” value with LS857 cells (5 μM thiazolidinedione (BRL 49653 or pioglitazone), 50 nM LG268, stained after four more days) was “significant lipid accumulation”. Further, the “median fluorescence (CD14)” value stood at 138 in the experiment with HL-60 leukemia cells and 18 with THP-1 leukemia cells. The “effect on cell growth” value in the experiment with HL-60 cells [2] was “only a marginal ability to promote cell differentiation”.
With `CCc1ccc(CCOc2ccc(CC3SC(=O)NC3=O)cc2)nc1` (stereo not shown) [pioglitazone], the “% lipid containing cells” value was 60-70% in the experiment with NIH-PPARγ cells and 0% in the experiment with NIH-vector cells. In addition, the “degree of morphologically recognizable differentiation” value in the experiment on LS857 cells (10 μM pioglitazone) came out at 40%; in the experiment with LS175 cells, 75%.
Regarding AM580, the “median fluorescence (CD14)” value with HL-60 leukemia cells came to 26.
